Patent US20260055103A1, “2,3,4,9-TETRAHYDRO-1H-PYRIDO[3,4-B]INDOLE DERIVATIVES AS ESTROGEN RECEPTOR MODULATORS FOR THE TREATMENT OF CANCER” (Olema Pharmaceuticals, Inc., priority 2022, published 2026)

Molecular target: T1, estrogen receptor (Homo sapiens, UniProt P03372)
T1 construct: endogenous in cells; host or cells: ECC-1 cells
T1 sequence (P03372 1-595): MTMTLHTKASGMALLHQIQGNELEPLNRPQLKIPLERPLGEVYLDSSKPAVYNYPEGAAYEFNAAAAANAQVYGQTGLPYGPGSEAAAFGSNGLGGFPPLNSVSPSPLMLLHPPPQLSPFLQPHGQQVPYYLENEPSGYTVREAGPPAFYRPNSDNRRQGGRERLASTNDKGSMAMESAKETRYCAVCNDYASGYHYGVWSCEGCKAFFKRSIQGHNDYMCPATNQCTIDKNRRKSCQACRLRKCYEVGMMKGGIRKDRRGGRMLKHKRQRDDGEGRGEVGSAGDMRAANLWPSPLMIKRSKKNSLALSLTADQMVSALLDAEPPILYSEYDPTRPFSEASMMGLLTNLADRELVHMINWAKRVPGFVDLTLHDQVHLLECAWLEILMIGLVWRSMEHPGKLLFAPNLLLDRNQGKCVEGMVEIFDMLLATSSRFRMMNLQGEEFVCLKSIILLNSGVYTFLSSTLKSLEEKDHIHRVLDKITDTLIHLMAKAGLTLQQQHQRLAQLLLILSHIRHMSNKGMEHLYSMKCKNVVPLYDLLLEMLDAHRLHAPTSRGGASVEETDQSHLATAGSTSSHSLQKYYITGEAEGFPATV
Assay: Alkaline phosphatase (AP) assay in ECC-1 cells, agonist mode (no E2) and antagonist mode (500 pM E2)
Type: cell-based
Conditions: 3 days, AP activity normalized to 500 pM E2 alone, agonist mode without E2, antagonist mode with 500 pM E2
Method: ECC-1 cells were trypsinized and resuspended in hormone-depleted media and plated at a density of 15 k cells per well into a 96-well plate for at least 4 hours. Cells were treated with test compounds in the absence of E2 (for agonist mode) or in the presence of 500 pM E2 (for antagonist mode) for 3 days and plates were subsequently frozen at −80° C. Thawed plates were incubated with a chromogenic substrate of AP, p-nitrophenyl phosphate (Thermo Fisher Scientific), for 40 minutes at 42° C., and absorbances were read at 405 nm. AP activity was normalized to the activity of 500 pM E2 alone.
The compound numbers correspond to the compound numbers of Table 1 and 2. Compounds having an activity designated as “+” provided estrogen receptor agonism having (i) at least 80% increase in the E2-normalized signal in the AP assay (agonist mode) and (ii) no more than 80% reduction in the E2-normalized signal in the AP assay (antagonist mode). Compounds having an activity designated as “++” provided estrogen receptor antagonism having (i) between 10% and 80% increase in the E2-normalized signal in the AP assay (agonist mode) and (ii) between 10% and 80% reduction in the E2-normalized signal in the AP assay (antagonist mode).

Row | SMILES | Activity (estrogen receptor modulation, agonism and antagonism)
1 | C[C@@H]1Cc2c([nH]c3ccccc23)[C@@H](c2ccc(CC3CN(CCC#N)C3)s2)N1CC(C)(C)F [Example I-56, 3-[3-[[5-[(1S,3R)-2-(2-fluoro-2-methyl-propyl)-3-methyl-1,3,4,9-tetrahydropyrido[3,4-b]indol-1-yl]-2-thienyl]methyl]azetidin-1-yl]propanenitrile] | ++ (estrogen receptor antagonism having (i) between 10% and 80% increase in the E2-normalized signal in the AP assay (agonist mode) and (ii) between 10% and 80% reduction in the E2-normalized signal in the AP assay (antagonist mode))
2 | C[C@@H]1Cc2c([nH]c3ccccc23)[C@@H](c2ccc(CCCN3CC[C@@H](CF)C3)s2)N1CC(C)(C)F [Example I-25, (1S,3R)-2-(2-fluoro-2-methylpropyl)-1-(5-(3-((R)-3-(fluoromethyl)pyrrolidin-1-yl)propyl)thiophen-2-yl)-3-methyl-2,3,4,9-tetrahydro-1H-pyrido[3,4-b]indole] | ++ (estrogen receptor antagonism having (i) between 10% and 80% increase in the E2-normalized signal in the AP assay (agonist mode) and (ii) between 10% and 80% reduction in the E2-normalized signal in the AP assay (antagonist mode))
3 | C[C@@H]1Cc2c([nH]c3ccccc23)[C@@H](c2ccc(C3CCN(CCCF)CC3)s2)N1CC(C)(C)F [Example I-71, (1S,3R)-2-(2-fluoro-2-methyl-propyl)-1-[5-[1-(3-fluoropropyl)-4-piperidyl]-2-thienyl]-3-methyl-1,3,4,9-tetrahydropyrido[3,4-b]indole] | + (estrogen receptor agonism having (i) at least 80% increase in the E2-normalized signal in the AP assay (agonist mode) and (ii) no more than 80% reduction in the E2-normalized signal in the AP assay (antagonist mode))
4 | C[C@@H]1Cc2c([nH]c3ccccc23)[C@@H](c2cnc(C[C@@H]3CCN(CCCF)C3)s2)N1CC(F)(F)CO [Example I-42] | ++ (estrogen receptor antagonism having (i) between 10% and 80% increase in the E2-normalized signal in the AP assay (agonist mode) and (ii) between 10% and 80% reduction in the E2-normalized signal in the AP assay (antagonist mode))
5 | C[C@@H]1Cc2c([nH]c3ccccc23)[C@@H](c2ncc(CC3CN(CCC(F)F)C3)s2)N1CC(F)(F)F [Example I-39, 5-[[1-(3,3-difluoropropyl)azetidin-3-yl]methyl]-2-[(1S,3R)-3-methyl-2-(2,2,2-trifluoroethyl)-1,3,4,9-tetrahydropyrido[3,4-b]indol-1-yl]thiazole] | ++ (estrogen receptor antagonism having (i) between 10% and 80% increase in the E2-normalized signal in the AP assay (agonist mode) and (ii) between 10% and 80% reduction in the E2-normalized signal in the AP assay (antagonist mode))
6 | Cc1cc(CC2CN(CCCF)C2)sc1[C@@H]1c2[nH]c3ccccc3c2C[C@@H](C)N1CC(C)(C)F [Example I-6, 3-({5-[(1S,3R)-2-(2-fluoro-2-methylpropyl)-3-methyl-1H,2H,3H,4H,9H-pyrido[3,4-b]indol-1-yl]-4-methylthiophen-2-yl}methyl)-1-(3-fluoropropyl)azetidine] | ++ (estrogen receptor antagonism having (i) between 10% and 80% increase in the E2-normalized signal in the AP assay (agonist mode) and (ii) between 10% and 80% reduction in the E2-normalized signal in the AP assay (antagonist mode))
7 | C[C@@H]1Cc2c([nH]c3ccccc23)[C@@H](c2cnc(CC3CN(CCCF)C3)s2)N1CC(F)F [Example I-29] | +++ (estrogen receptor antagonism (i) with pIC50 greater than 7.5 and at least a 10% reduction in the E2-normalized signal in the AP assay (antagonist mode); and no more than 10% increase in E2-normalized signal in the AP assay (agonist mode))
8 | C[C@@H]1Cc2c([nH]c3ccccc23)[C@@H](c2ccc(CC3CN(CCC4COC4)C3)s2)N1CC(F)(F)CO [Example I-59, 2,2-difluoro-3-((1S,3R)-3-methyl-1-(5-((1-(2-(oxetan-3-yl)ethyl)azetidin-3-yl)methyl)thiophen-2-yl)-1,3,4,9-tetrahydro-2H-pyrido[3,4-b]indol-2-yl)propan-1-ol] | + (estrogen receptor agonism having (i) at least 80% increase in the E2-normalized signal in the AP assay (agonist mode) and (ii) no more than 80% reduction in the E2-normalized signal in the AP assay (antagonist mode))
9 | C#CCN1CC(Cc2ccc([C@@H]3c4[nH]c5ccccc5c4C[C@@H](C)N3CC(C)(C)F)s2)C1 [Example I-58, (1S,3R)-2-(2-fluoro-2-methyl-propyl)-3-methyl-1-[5-[(1-prop-2-ynylazetidin-3-yl)methyl]-2-thienyl]-1,3,4,9-tetrahydropyrido[3,4-b]indole] | + (estrogen receptor agonism having (i) at least 80% increase in the E2-normalized signal in the AP assay (agonist mode) and (ii) no more than 80% reduction in the E2-normalized signal in the AP assay (antagonist mode))
10 | CCCN1CC(Cc2sc([C@@H]3c4[nH]c5ccccc5c4C[C@@H](C)N3CC(C)(C)F)cc2C)C1 [Example I-8, (1S,3R)-2-(2-fluoro-2-methylpropyl)-3-methyl-1-(4-methyl-5-((1-propylazetidin-3-yl)methyl)thiophen-2-yl)-2,3,4,9-tetrahydro-1H-pyrido[3,4-b]indole] | ++ (estrogen receptor antagonism having (i) between 10% and 80% increase in the E2-normalized signal in the AP assay (agonist mode) and (ii) between 10% and 80% reduction in the E2-normalized signal in the AP assay (antagonist mode))
11 | C[C@@H]1Cc2c([nH]c3ccccc23)[C@@H](c2ncc(CC3CN(CCCF)C3)s2)N1CC(C)(C)F [Example I-4, 2-[(1S,3R)-2-(2-fluoro-2-methylpropyl)-3-methyl-1H,2H,3H,4H,9H-pyrido[3,4-b]indol-1-yl]-5-{[1-(3-fluoropropyl)azetidin-3-yl]methyl}-1,3-thiazole] | + (estrogen receptor agonism having (i) at least 80% increase in the E2-normalized signal in the AP assay (agonist mode) and (ii) no more than 80% reduction in the E2-normalized signal in the AP assay (antagonist mode))
12 | CCCN1CC(Cc2sc([C@@H]3c4[nH]c5ccccc5c4C[C@@H](C)N3CC(C)(C)F)cc2F)C1 [Example I-10, (1S,3R)-2-(2-fluoro-2-methylpropyl)-1-(4-fluoro-5-((1-propylazetidin-3-yl)methyl)thiophen-2-yl)-3-methyl-2,3,4,9-tetrahydro-1H-pyrido[3,4-b]indole] | ++ (estrogen receptor antagonism having (i) between 10% and 80% increase in the E2-normalized signal in the AP assay (agonist mode) and (ii) between 10% and 80% reduction in the E2-normalized signal in the AP assay (antagonist mode))
13 | C[C@@H]1Cc2c([nH]c3ccccc23)[C@@H](c2cnc(N[C@H]3CN(CCCF)C[C@H]3F)s2)N1CC(F)(F)CO [Example I-64, 2,2-difluoro-3-[(1S,3R)-1-[2-[[(3S,4R)-4-fluoro-1-(3-fluoropropyl)pyrrolidin-3-yl]amino]thiazol-5-yl]-3-methyl-1,3,4,9-tetrahydropyrido[3,4-b]indol-2-yl]propan-1-ol] | ++ (estrogen receptor antagonism having (i) between 10% and 80% increase in the E2-normalized signal in the AP assay (agonist mode) and (ii) between 10% and 80% reduction in the E2-normalized signal in the AP assay (antagonist mode))
14 | C[C@@H]1Cc2c([nH]c3ccccc23)[C@@H](c2ccc(CC3CN(CCCF)C3)s2)N1CC(F)(F)CF [Example I-23, (1S,3R)-1-(5-((1-(3-fluoropropyl)azetidin-3-yl)methyl)thiophen-2-yl)-3-methyl-2-(2,2,3-trifluoropropyl)-2,3,4,9-tetrahydro-1H-pyrido[3,4-b]indole] | ++ (estrogen receptor antagonism having (i) between 10% and 80% increase in the E2-normalized signal in the AP assay (agonist mode) and (ii) between 10% and 80% reduction in the E2-normalized signal in the AP assay (antagonist mode))
15 | C[C@@H]1Cc2c([nH]c3ccccc23)[C@@H](c2ncc(CC3CN(CCCF)C3)s2)N1CC(F)(F)CO [Example I-44, 2,2-difluoro-3-[(1S,3R)-1-[5-[[1-(3-fluoropropyl)azetidin-3-yl]methyl]thiazol-2-yl]-3-methyl-1,3,4,9-tetrahydropyrido[3,4-b]indol-2-yl]propan-1-ol] | ++ (estrogen receptor antagonism having (i) between 10% and 80% increase in the E2-normalized signal in the AP assay (agonist mode) and (ii) between 10% and 80% reduction in the E2-normalized signal in the AP assay (antagonist mode))
